{
  "source": "patent US20250221930A1",
  "about": "“A COMPOSITION COMPRISING LIPID NANOPARTICLES AND AN ANTIFUNGAL POLYENE” (INSTITUT NATIONAL DE LA SANTÉ ET DE LA RECHERCHE MÉDICALE, priority 2022, published 2025)",
  "key": {"Lichtheimia ramosa": {"system": "Lichtheimia ramosa", "assay": "MIC of AmB in solution with blank lipid nanoparticles (BLNPs), EUCAST broth microdilution", "assay_type": "cell-based", "conditions": "AmB in solution in RPMI, without PEG15HS LNPs", "procedure": "MICs for each fungi were measured in the presence of different concentrations of AmB (solubilized in the LNP suspensions or loaded in the LNP) as described by the EUCAST broth microdilution antifungal susceptibility test methodology (EUCAST DEFINITIVE DOCUMENT E.Def 9.3.2 Apr. 2020. EUCAST antifungal MIC method for mould).\nA clinical isolate of Lichtheimia ramosa was used. Isolate were subcultured from frozen stocks (−80° C.) on 75 cm^3 flasks containing 15 ml of Sabouraud dextrose agar (Sigma-Aldrich, St. Quentin Fallavier, France) during 3 days at 37° C. Spores were collected by flooding the flask with 10 mL of sterile water. The suspensions were filtered on nylon filter (Millipore, Carrigtwohill, Ireland) with pore size of 11 μm to remove hyphal elements. The concentration of the spore suspensions was then adjusted in sterile water to obtain inocula of 2×10^5 spores/mL.\nThe MIC of the formulations for Lichtheimia ramosa was assayed."}, "L. ramosa": {"system": "L. ramosa", "assay": "Checkerboard MICs of AmB, ISA and PEG15HS in solution", "assay_type": "cell-based, Lichtheimia ramosa", "conditions": "RPMI, 24 h at 37° C.", "procedure": "AmB minimum inhibitory concentrations (MIC) of each strain of Mucorales was measured in RPMI in the presence of different concentrations of ISA or PEG15HS as described by the EUCAST broth microdilution antifungal susceptibility test methodology with modification for the checkerboard procedure. Checkerboards were performed by adding 100 μL of two-fold dilutions of AmB (0.008 to 4 mg/L) and ISA (0.008 to 4 mg/L) or PEG15HS (0.04 to 2752 mg/L) in 96 well plates. One hundred microliters of a spore suspension at a concentration of 105 spores/mL were added to the wells, and the plates were incubated for 24 h at 37° C. […] Three experiments were performed for each strain.\nAmB MIC of each strain of Mucorales was measured in RPMI in the presence of different concentrations of ISA and a constant concentration of PEG15HS (100 times the concentration of AmB) as described by the EUCAST broth microdilution antifungal susceptibility test methodology with modification for the checkerboard procedure. Checkerboards were performed by adding 100 μL of two-fold dilutions of AmB (0.008 to 4 mg/L)+PEG15HS (0.8 to 400 mg/L) and ISA (0.008 to 4 mg/L) in 96 well plates. One hundred microliters of a spore suspension at a concentration of 105 spores/mL were added to the wells, and the plates were incubated for 24 h at 37° C. […] Three experiments were performed for each strain. […]"}, "Aspergillus fumigatus": {"system": "Aspergillus fumigatus", "assay": "EUCAST MICs of AmB, ISA, AmB-loaded LNPs and AmB-ISA-loaded LNPs", "assay_type": "cell-based", "conditions": "48 h at 37° C.", "procedure": "Briefly, a mass (80-120 mg) of an oil phase consisting of triglycerides (Labrafac®, or tributyrin in different mass ratios, i.e. 100% Labrafac® to 100% tributyrin) was supplemented with AmB (0,025 to 0.2 mg) and ISA (0.25 to 5 mg) and then mixed with 80 to 120 mg of PEG15HS (Solutol HS15®) and 500 to 800 μl of water to form an oil-in-water emulsion. This emulsion was then heated to 85° C., to obtain a water-in-oil emulsion, and then cooled to 40° C. Three such temperature cycles were performed and the system was then fast cooled to 4° C. The formulated nanoparticles were then characterized by size distribution and mean zeta potential measurements. Examples of formulations of LNPs loaded with AmB and AmB-ISA are detailed in Table 5:\nTwo reference strains (ATCC 16424 and ATCC 204305) and a clinical azole-resistant strain (AfR2) of Aspergillus fumigatus were used.\nMICs of AmB in solution, ISA in solution, AmB-loaded LNPs, and AmB-ISA-loaded LNPs were evaluated according to the European Committee on Antimicrobial Susceptibility Testing (EUCAST) guidelines. Briefly, MICs were determined by adding 100 μL of two-fold dilutions of AmB in solution, ISA in solution, AmB-LNPs or AmB-ISA-LNPs (0.008 to 4 mg/L) in 96-well plates. One hundred microliters of a spore suspension at a concentration of 105 spores/mL were added to the wells, and the plates were incubated for 24 h (Mucorales) or 48 h (A. fumigatus) at 37° C. […] Three experiments were performed for each strain."}},
  "data": [
    {"smiles": "C[C@@H]1[C@H](O)[C@@H](C)/C=C/C=C/C=C/C=C/C=C/C=C/C=C/[C@H](O[C@@H]2O[C@H](C)[C@@H](O)[C@H](N)[C@@H]2O)C[C@@H]2O[C@](O)(C[C@@H](O)C[C@@H](O)[C@H](O)CC[C@@H](O)C[C@@H](O)CC(=O)O[C@H]1C)C[C@H](O)[C@H]2C(=O)O", "note": "[AmB, amphotericin B]", "values": [
      {"measurement": "MIC of AmB", "setting": "Lichtheimia ramosa", "value": 0.5, "unit": "µg/mL"},
      {"measurement": "MIC of AmB", "setting": "L. ramosa", "value": 1, "unit": "µg/mL"},
      {"measurement": "MIC (AmB)", "setting": "Aspergillus fumigatus; A. fumigatus 20 (ATCC 204305)", "value": 2, "unit": "µg/mL"},
      {"measurement": "MIC (AmB)", "setting": "Aspergillus fumigatus; A. fumigatus R2 (clinical azole-resistant strain AfR2)", "value": 2, "unit": "µg/mL"},
      {"measurement": "MIC (AmB)", "setting": "Aspergillus fumigatus; Aspergillus fumigatus 16 (ATCC 16424)", "value": 2, "unit": "µg/mL"}
    ]}
  ]
}
